The values below come from patent US7115718B2, “Haptens, immunogens, antibodies and conjugates to 2-oxo-3-hydroxy-LSD” (Randox :abpratproes :o, oted, priority 2001, dated 2006).

Structures are written as SMILES.

Data set [1] deals with antibodies generated to immunogen 4. The note with it: cited from earlier work.
The subject of data set [2] is antibodies obtained in EP 1 148 339 A2. The following applies: when compared to 2-oxo-3-hydroxy-LSD; cited from earlier work.
The subject of data set [3] is antibodies generated to immunogen 8. The note with it: cited from earlier work.
Data set [4] has as its system antiserum raised to immunogen A (hapten A-BSA). The data set can be described thus: Competitive ELISA microtiter plate assay for 2-oxo-3-hydroxy-LSD, cross-reactivity with LSD and its metabolites. In kind it is binding, sheep. The note with it: for % CR, percentage cross-reactivity based on specificity to 2-oxo-3-hydroxy LSD: % CR = IC50 2-oxo / IC50 LSD x 100; for % B/B0: B0 = absorbance at 0 ng/ml; for A450: absorbance at 450 nm, conjugate A (hapten A-HRP). As for the experimental part:
An aqueous solution of the immunogen prepared in Example 5 was formulated with Freund's Complete Adjuvant (FCA) to form an emulsion consisting of 4 mg/ml inmmunogen in 50% (v/v) FCA. Three sheep were immunized with this emulsion (1° immunisation), 0.25 ml being subcutaneously -injected at each of four sites in the flank of each animal. The next immunisation (Boost 1) contained 2 mg/ml immunogen and subsequent immunizations (boosts 2 to 25) contained 1 mg/ml. All boosts were emulsified in 50% (v/v) Freund's Incomplete Adjuvant (FIA) and administered in the same manner as the 1° immunisation at monthly intervals for 1 year. Blood sampling took place 7 to 14 days after each boost. Each sample was processed to produce antiserum, which was further purified by caprylic acid and ammonium sulfate precipitation to yield an immunoglobulin G (IgG) fraction. The IgG fraction was evaluated by competitive ELISA microtitre plate assay, as described in Example 14 below.
The wells of an enhanced binding 96 well polystyrene ricrotiter plate were coated with the IgG fraction of the antiserum raised to immunogen A (Example 5) of the present invention, diluted in 10 mM Tris, pH8.5 (125 μl/well). The appropriate antibody coating dilution was determined using standard ELISA chequerboard techniques. The plate was incubated for 2 hours at 37° C., washed 4 times with Tris buffered saline containing Tween 20 (TBST) and tapped dry. Standard solutions of 2-oxo-3-hydroxy-LSD were prepared in TBST at 0, 10, 50, 100, 250, 500, 1000 and 2000 ng/ml and 50 μl of each was added to the appropriate wells (FIG. 4). The conjugate (detection reagent) of the present invention was diluted in Tris buffer (pH7.2) containing EDTA, D-mannitol, sucrose, thimerosal and BSA, the appropriate dilution being determined by standard ELISA chequerboard techniques, and 75 μl was added to the appropriate wells (FIG. 4). The plate was incubated at 37° C. for 2 hours. Excess unbound conjugate was removed by washing 6 times over a 10 minute period with TBST.
125 μl of tetramethylbenzidine (TMB) substrate solution was added to each well of the plate, which was then incubated for 15 to 20 minutes in the dark at room temperature. The reaction was terminated by addition of 125 μl 0.2M H2SO4 to each well. The absorbance was then measured at 450 nm using a microtiter plate reader.
Standard solutions of LSD and its metabolites were prepared in TBST at 0, 10.0, 50.0, 100.0, 250.0, 500.0, 1000 and 2000 ng/ml. Employing each series of standards in the present competitive ELISA, calibration curves were generated and these were used to determine the cross-reactivity of the immunoassays with LSD and its metabolites, cross-reactivity being calculated according to the following formula: % CR=IC502-oxo/IC50LSD×100 where % CR is the percentage cross-reactivity, IC502-oxo is the concentration of 2-oxo-3-hydroxy-LSD that causes 50% displacement of signal and IC50LSD is the concentration of LSD or LSD metabolite that causes 50% displacement of signal.

The conditions of data set [5]: in vivo; cited from earlier work.
Data set [6] has as its system antibodies of U.S. Pat. No. 6,207,396 B1. The note with it: antibodies specific to d-LSD; cited from earlier work.
The conditions of data set [7]: in vivo; cited from earlier work. This is another data set of the same source.
For data set [8] the following is noted: human urine; cited from earlier work.

Take `CCN(CC)C(=O)[C@@H]1C=C2c3cccc4[nH]cc(c34)C[C@H]2NC1` [Nor LSD, nor-LSD]: the cross-reactivity in data set [1] is on record as 20%; in data set [2], 1.8–4.6%; in data set [3], 40%. Moreover, in data set [4], the “specificity / cross-reactivity of the assay, in words” value (“specificity / cross-reactivity” for short) is given as “very low levels of cross-reactivity”. For the same molecule, the “% CR, percentage cross-reactivity based on specificity to 2-oxo-3-hydroxy LSD” value (“% CR, percentage cross-reactivity based” for short) in data set [4] is less than 5%. The “% B/B0” value in data set [4] (standard 10 ng/ml) came to 99.0%; in data set [4] (standard 50 ng/ml), 98.7%; in data set [4] (standard 100 ng/ml) it was 98.5%; in data set [4] (standard 250 ng/ml) it was 97.1%; in data set [4] (standard 500 ng/ml), 94.2%; in data set [4] (standard 1000 ng/ml), 91.5%. Also, the “% B/B0” value in data set [4] (standard 2000 ng/ml) was 86.7%. Besides, the A450 in data set [4] (standard 10 ng/ml) was determined as 1.772; in data set [4] (standard 50 ng/ml), 1.767; in data set [4] (standard 100 ng/ml) it was 1.763; in data set [4] (standard 250 ng/ml) it was 1.738; in data set [4] (standard 500 ng/ml), 1.686; in data set [4] (standard 1000 ng/ml), 1.638. Besides, in data set [4] (standard 2000 ng/ml), the A450 amounted to 1.552.

As for `CCN(CC)C(=O)[C@H]1C=C2c3cccc4[nH]cc(c34)C[C@H]2N(C)C1` [d-iso-LSD], the “hallucinogenic activity, in words” value in data set [5] was “inactive”. Moreover, the cross-reactivity in data set [6] is reported as 0.04%.

In the case of `CCN(CC)C(=O)[C@@H]1C=C2c3cccc4[nH]cc(c34)C[C@H]2N(C)C1` [LSD, Lysergic acid diethylamide], the cross-reactivity in data set [1] is listed as 100%; in data set [2], 74.9–84.4%; in data set [3], 100%. Besides, the “potency as hallucinogen relative to mescaline” value in data set [5] is reported as 4500–9275 times. Besides, the “potency as hallucinogen relative to psilocybin” value in data set [5] is recorded as 10–150 times. Besides, the “excreted unchanged in urine” value in data set [7] is given as “less than 1%”. Also, in data set [4], the “specificity / cross-reactivity” value is recorded as “very low levels of cross-reactivity”. The “% CR, percentage cross-reactivity based” value in data set [4] is less than 5%. The “% B/B0” value in data set [4] (standard 10 ng/ml) turned out to be 99.28%; in data set [4] (standard 50 ng/ml), 98.45%; in data set [4] (standard 100 ng/ml), 98.34%; in data set [4] (standard 250 ng/ml), 96.40%; in data set [4] (standard 500 ng/ml), 91.58%; in data set [4] (standard 1000 ng/ml), 87.09%. The “% B/B0” value in data set [4] (standard 2000 ng/ml) stood at 80.50%. In addition, the A450 in data set [4] (standard 10 ng/ml) was found to be 1.792; in data set [4] (standard 50 ng/ml), 1.777; in data set [4] (standard 100 ng/ml), 1.775; in data set [4] (standard 250 ng/ml), 1.740; in data set [4] (standard 500 ng/ml), 1.653; in data set [4] (standard 1000 ng/ml), 1.572. In addition, in data set [4] (standard 2000 ng/ml), the A450 turned out to be 1.453.

For `CCN(CC)C(=O)[C@@H]1C=C2c3cccc4c3C(O)(C[C@H]2N(C)C1)C(=O)N4` (stereo partly drawn) [2-Oxo-3-Hydroxy-LSD, 2-oxo-3-hydroxy-LSD], the “average concentration relative to that of LSD” value in data set [8] is recorded as 20 times. For the same molecule, the cross-reactivity is listed as 50% in data set [1], 1.82% in data set [6] and less than 20% in data set [3]. For the same molecule, the “specificity / cross-reactivity” value in data set [4] is reported as “highly specific”. Further, the “% CR, percentage cross-reactivity based” value in data set [4] is reported as 100%. For the same molecule, the “% B/B0” value worked out at 78.47% in data set [4] (standard 10 ng/ml); 59.36% in data set [4] (standard 50 ng/ml); 50.08% in data set [4] (standard 100 ng/ml); 37.10% in data set [4] (standard 250 ng/ml); 28.89% in data set [4] (standard 500 ng/ml); 21.98% in data set [4] (standard 1000 ng/ml). For the same molecule, the “% B/B0” value in data set [4] (standard 2000 ng/ml) is reported as 17.88%. Further, the A450 in data set [4] (standard 10 ng/ml) amounted to 1.396; in data set [4] (standard 50 ng/ml), 1.056; in data set [4] (standard 100 ng/ml), 0.891; in data set [4] (standard 250 ng/ml) it was 0.660; in data set [4] (standard 500 ng/ml) it was 0.514; in data set [4] (standard 1000 ng/ml), 0.391. The A450 in data set [4] (standard 2000 ng/ml) came out at 0.318.
